Source: patent US20190216761A1, “COMPOSITIONS COMPRISING 15-HEPE AND METHODS OF USING THE SAME” (Afimmune Limited, priority 2015, published 2019)
One block for each molecule: values may come before it.

Experiments:
[1] = system: rPPARδ; test: PPAR antagonist reporter assay (reference agonist at EC80); assay type: cell-based, rat; details: for inhibition of rat PPARs (in words), rPPARδ: at higher test concentrations
Protocol: (§1) This study utilized proprietary reporter cells expressing a hybrid receptor comprising the N-terminal Gal4 DNA binding domain fused to the ligand binding domain of the specific human nuclear receptor (hPPARα, hPPARδ, and hPPARγ) and rat nuclear receptor (rPPARα, rPPARδ, and rPPARγ). The reporter vectors used in this Example comprise the firefly luciferase gene functionally linked to the Gal4 upstream activation sequence.
(§2) Nuclear Receptor assay was performed by suspending Reporter Cells in CRM containing 10% charcoal stripped FBS. 2×-EC80 concentrations of the appropriate reference agonist were then added to the Reporter Cell suspension, and 100 μL of the mixture dispensed into wells of a white 96-well plate. Test compounds were diluted using compound screening medium (CSM) containing 10% charcoal stripped FBS to generate “2×-concentration” treatment media. Immediately after this dilution step, 100 μL of each diluted 2×-concentration treatment medium was dispensed (in triplicate) into the Reporter Cell-containing assay wells.
(§3) After incubation at 37° C. for 24 hours, the treatment media was discarded. Each well was rinsed once with LCM Buffer; LCM substrate was then added. After incubation for 30 minutes at 37° C., fluorescence was measured to determine the relative number of live cells per assay well. LCM substrate was then discarded and 100 μL of Luciferase Detection Reagent substrate was added to each well. RLUs were quantified from each well to determine nuclear receptor activities.

[2] = system: hPPARα Reporter Cells; test: Live cell multiplex assay; assay type: cell-based
Protocol: as §1, §2, §3

[3] = system: hPPARγ Reporter Cells; test: Live cell multiplex assay; assay type: cell-based
Protocol: as §1, §2, §3

[4] = system: hPPARδ Reporter Cells; test: Live cell multiplex assay; assay type: cell-based
Protocol: as §1, §2, §3

[5] = system: rPPARγ Reporter Cells; test: Live cell multiplex assay; assay type: cell-based
Protocol: as §1, §2, §3

% Inhibition of agonist-stimulated receptor activity vs. 0.10% DMSO, rPPAR-δ ([1]; 137 nM): 25%
% Inhibition of agonist-stimulated receptor activity vs. 0.10% DMSO, rPPAR-δ ([1]; 412 nM): 1.5%
% Inhibition of agonist-stimulated receptor activity vs. 0.10% DMSO, rPPAR-δ ([1]; 1,235 nM): −1.8%
% Inhibition of agonist-stimulated receptor activity vs. 0.10% DMSO, rPPAR-δ ([1]; 3,704 nM): 6.8%
% Inhibition of agonist-stimulated receptor activity vs. 0.10% DMSO, rPPAR-δ ([1]; 11,111 nM): 1.2%
% Inhibition of agonist-stimulated receptor activity vs. 0.10% DMSO, rPPAR-δ ([1]; 33,333 nM): 26%
% Inhibition of agonist-stimulated receptor activity vs. 0.10% DMSO, rPPAR-δ ([1]; 100,000 nM): 58%
% Inhibition of agonist-stimulated receptor activity vs. 0.10% DMSO, rPPAR-δ ([1]; 300,000 nM): 100%
SMILES: CC/C=C\C[C@H](O)/C=C/C=C\C/C=C\C/C=C\CCCC(=O)OCC [15-HEPE-EE, 15-HEPE ethyl ester]
inhibition of rat PPARs (in words), rPPARδ [1]: apparent inhibition
% Live cells vs. 0.10% DMSO, hPPAR-α ([2]; 137 nM): 96%
% Live cells vs. 0.10% DMSO, hPPAR-α ([2]; 412 nM): 94%
% Live cells vs. 0.10% DMSO, hPPAR-α ([2]; 1,235 nM): 119%
% Live cells vs. 0.10% DMSO, hPPAR-α ([2]; 3,704 nM): 120%
% Live cells vs. 0.10% DMSO, hPPAR-α ([2]; 11,111 nM): 117%
% Live cells vs. 0.10% DMSO, hPPAR-α ([2]; 33,333 nM): 115%
% Live cells vs. 0.10% DMSO, hPPAR-α ([2]; 100,000 nM): 69%
% Live cells vs. 0.10% DMSO, hPPAR-α ([2]; 300,000 nM): 35%
% Live cells vs. 0.10% DMSO, hPPAR-γ ([3]; 137 nM): 86%
% Live cells vs. 0.10% DMSO, hPPAR-γ ([3]; 412 nM): 99%
% Live cells vs. 0.10% DMSO, hPPAR-γ ([3]; 1,235 nM): 101%
% Live cells vs. 0.10% DMSO, hPPAR-γ ([3]; 3,704 nM): 101%
% Live cells vs. 0.10% DMSO, hPPAR-γ ([3]; 11,111 nM): 100%
% Live cells vs. 0.10% DMSO, hPPAR-γ ([3]; 33,333 nM): 99%
% Live cells vs. 0.10% DMSO, hPPAR-γ ([3]; 100,000 nM): 91%
% Live cells vs. 0.10% DMSO, hPPAR-γ ([3]; 300,000 nM): 4.9%
% Live cells vs. 0.10% DMSO, hPPAR-δ ([4]; 137 nM): 95%
% Live cells vs. 0.10% DMSO, hPPAR-δ ([4]; 412 nM): 98%
% Live cells vs. 0.10% DMSO, hPPAR-δ ([4]; 1,235 nM): 99%
% Live cells vs. 0.10% DMSO, hPPAR-δ ([4]; 3,704 nM): 100%
% Live cells vs. 0.10% DMSO, hPPAR-δ ([4]; 11,111 nM): 101%
% Live cells vs. 0.10% DMSO, hPPAR-δ ([4]; 33,333 nM): 101%
% Live cells vs. 0.10% DMSO, hPPAR-δ ([4]; 100,000 nM): 101%
% Live cells vs. 0.10% DMSO, hPPAR-δ ([4]; 300,000 nM): 7.7%
% Live cells vs. 0.10% DMSO, rPPAR-γ ([5]; 137 nM): 98%
% Live cells vs. 0.10% DMSO, rPPAR-γ ([5]; 412 nM): 101%
% Live cells vs. 0.10% DMSO, rPPAR-γ ([5]; 1,235 nM): 101%
% Live cells vs. 0.10% DMSO, rPPAR-γ ([5]; 3,704 nM): 100%
% Live cells vs. 0.10% DMSO, rPPAR-γ ([5]; 11,111 nM): 101%
% Live cells vs. 0.10% DMSO, rPPAR-γ ([5]; 33,333 nM): 101%
% Live cells vs. 0.10% DMSO, rPPAR-γ ([5]; 100,000 nM): 99%
% Live cells vs. 0.10% DMSO, rPPAR-γ ([5]; 300,000 nM): 91%

SMILES: CC/C=C\C/C=C\C/C=C\C/C=C\C/C=C\CCCC(=O)OCC [EPA-EE, EPA ethyl ester, reference compound]
% Inhibition of agonist-stimulated receptor activity vs. 0.10% DMSO, rPPAR-δ ([1]; 137 nM): 26%
% Inhibition of agonist-stimulated receptor activity vs. 0.10% DMSO, rPPAR-δ ([1]; 412 nM): 4.0%
% Inhibition of agonist-stimulated receptor activity vs. 0.10% DMSO, rPPAR-δ ([1]; 1,235 nM): 5.7%
% Inhibition of agonist-stimulated receptor activity vs. 0.10% DMSO, rPPAR-δ ([1]; 3,704 nM): 8.1%
% Inhibition of agonist-stimulated receptor activity vs. 0.10% DMSO, rPPAR-δ ([1]; 11,111 nM): 3.7%
% Inhibition of agonist-stimulated receptor activity vs. 0.10% DMSO, rPPAR-δ ([1]; 33,333 nM): 7.2%
% Inhibition of agonist-stimulated receptor activity vs. 0.10% DMSO, rPPAR-δ ([1]; 100,000 nM): 10%
% Inhibition of agonist-stimulated receptor activity vs. 0.10% DMSO, rPPAR-δ ([1]; 300,000 nM): 36%
inhibition of rat PPARs (in words), rPPARδ [1]: does not exhibit similar inhibitory activity
% Live cells vs. 0.10% DMSO, hPPAR-α ([2]; 137 nM): 99%
% Live cells vs. 0.10% DMSO, hPPAR-α ([2]; 412 nM): 93%
% Live cells vs. 0.10% DMSO, hPPAR-α ([2]; 1,235 nM): 113%
% Live cells vs. 0.10% DMSO, hPPAR-α ([2]; 3,704 nM): 112%
% Live cells vs. 0.10% DMSO, hPPAR-α ([2]; 11,111 nM): 116%
% Live cells vs. 0.10% DMSO, hPPAR-α ([2]; 33,333 nM): 112%
% Live cells vs. 0.10% DMSO, hPPAR-α ([2]; 100,000 nM): 96%
% Live cells vs. 0.10% DMSO, hPPAR-α ([2]; 300,000 nM): 80%
% Live cells vs. 0.10% DMSO, hPPAR-γ ([3]; 137 nM): 88%
% Live cells vs. 0.10% DMSO, hPPAR-γ ([3]; 412 nM): 99%
% Live cells vs. 0.10% DMSO, hPPAR-γ ([3]; 1,235 nM): 101%
% Live cells vs. 0.10% DMSO, hPPAR-γ ([3]; 3,704 nM): 101%
% Live cells vs. 0.10% DMSO, hPPAR-γ ([3]; 11,111 nM): 101%
% Live cells vs. 0.10% DMSO, hPPAR-γ ([3]; 33,333 nM): 102%
% Live cells vs. 0.10% DMSO, hPPAR-γ ([3]; 100,000 nM): 103%
% Live cells vs. 0.10% DMSO, hPPAR-γ ([3]; 300,000 nM): 92%
% Live cells vs. 0.10% DMSO, hPPAR-δ ([4]; 137 nM): 97%
% Live cells vs. 0.10% DMSO, hPPAR-δ ([4]; 412 nM): 97%
% Live cells vs. 0.10% DMSO, hPPAR-δ ([4]; 1,235 nM): 99%
% Live cells vs. 0.10% DMSO, hPPAR-δ ([4]; 3,704 nM): 100%
% Live cells vs. 0.10% DMSO, hPPAR-δ ([4]; 11,111 nM): 101%
% Live cells vs. 0.10% DMSO, hPPAR-δ ([4]; 33,333 nM): 101%
% Live cells vs. 0.10% DMSO, hPPAR-δ ([4]; 100,000 nM): 103%
% Live cells vs. 0.10% DMSO, hPPAR-δ ([4]; 300,000 nM): 103%
% Live cells vs. 0.10% DMSO, rPPAR-γ ([5]; 137 nM): 97%
% Live cells vs. 0.10% DMSO, rPPAR-γ ([5]; 412 nM): 101%
% Live cells vs. 0.10% DMSO, rPPAR-γ ([5]; 1,235 nM): 102%
% Live cells vs. 0.10% DMSO, rPPAR-γ ([5]; 3,704 nM): 101%
% Live cells vs. 0.10% DMSO, rPPAR-γ ([5]; 11,111 nM): 100%
% Live cells vs. 0.10% DMSO, rPPAR-γ ([5]; 33,333 nM): 101%
% Live cells vs. 0.10% DMSO, rPPAR-γ ([5]; 100,000 nM): 98%
% Live cells vs. 0.10% DMSO, rPPAR-γ ([5]; 300,000 nM): 102%
